Like-named read-outs stand apart in the source and are kept apart here.
Key:
[1] = test system: PD1-ss+10aa/Gaussia Luciferase; assay: Dox-Induced PD1-ss-Gluc Assay; format: cell-based; conditions: 24 hr Dox induction, 293FRT/TO cells, read-out: 24 hr Dox Inducible PD1ssGluc 293FRT/TO: Mean IC50
Summary of the method: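 Flp-In 293 T-REx, stable line; Tet-regulated PD1-ss+10aa fused to Gaussia luciferase; plated day prior; cpd + doxycycline in DMSO/media; 37 °C, 5% CO2.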

[2] = test system: TNFα-FL/Gaussia Luciferase; assay: Dox Induced TNFα-FL-Gluc Assay; format: cell-based; conditions: for IC50: 24 hr Dox induction, 293FRT/TO cells, read-out: 24 hr Dox Inducible TNFaFLGluc 293FRT/TO: Mean IC50; for 24 hr Dox Inducible TNFaFLGluc 293FRT/TO: TNF/PD1: ratio of TNFaFLGluc IC50 to PD1ssGluc IC50
Summary of the method: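 Hygromycin/blasticidin-selected Flp-In 293 T-REx cells, TNFα-FL/Gaussia luciferase fusion under T-REx control; overnight plating, then compound in DMSO/media with doxycycline at 37 °C, 5% CO2; stereo-undefined structures tested as mixtures.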

[3] = test system: HER3-ss+4aa/Gaussia Luciferase; assay: Dox-Induced Her3-ss-Gluc Assay; format: cell-based; conditions: 24 hr Dox induction, 293FRT/TO cells, read-out: 24 hr Dox Inducible Her3(ss + 4)Gluc 293FRT/TO: Mean IC50
Summary of the method: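 Doxycycline-inducible HER3 signal sequence+4aa/Gaussia luciferase construct, stably integrated in Flp-In 293 T-REx cells; compound dilutions applied with doxycycline at 37° C., 5% CO2.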

[4] = test system: IL-2-FL/Gaussia Luciferase; assay: Dox Induced IL2-FL-Gluc Assay; format: cell-based; conditions: for IC50: 24 hr Dox induction, 293FRT/TO cells, read-out: 24 hr Dox Inducible IL2FLGluc 293FRT/TO: Mean IC50; for 24 hr Dox Inducible IL2FLGluc 293FRT/TO: IL2/PD1: ratio of IL2FLGluc IC50 to PD1ssGluc IC50
Summary of the method: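 A hygromycin- and blasticidin-resistant 293 T-REx clone carrying inducible IL-2–Gaussia luciferase (full-length IL-2, residues 1-153) serves as the cell system. After overnight plating, the cells get test compounds together with doxycycline in DMSO/media and are incubated at 37° C, 5% CO2.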

[5] = test system: multiple myeloma cell line NCI-H929; assay: H929 Cell Viability Assay; format: cell-based, human; conditions: Homo sapiens, NCI-H929, 48 h, NCI-H929 cells, Celltiter-Glo
Summary of the method: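 A 48-hour compound treatment of cells in 10% FBS RPMI medium was followed by luciferase-based viability quantification.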

[6] = test system: multiple myeloma cell line U266B1; assay: U266 Cell Viability Assay; format: cell-based, human; conditions: Homo sapiens, U-266, 48 h, U266B1 cells, Celltiter-Glo
Summary of the method: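 After growth in serum-supplemented RPMI 1640, cells received serially diluted compound in DMSO/media and were kept 48 hours before a CellTiter-Glo luminescence readout.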

[7] = Liver Microsome Stability Assay (rat); conditions: rat liver microsomes, with NADPH, 1.0 uM compound
Experimental: (§1) Stability of a compound was assessed in the presence of liver microsomes from various sources—mouse, rat, monkey and human liver microsomes. 1.0 uM compound, 0.4% DMSO in 0.1 M Potassium Phosphate with 1.0 mg/mL liver microsomes, were incubated at 37° C. with or without 1 mM NADPH. The samples were quenched at 0, and 30 minutes.

[8] = Liver Microsome Stability Assay (mouse); conditions: mouse liver microsomes, with NADPH, 1.0 uM compound
Experimental: as §1

[9] = Liver Microsome Stability Assay (human); conditions: human liver microsomes, with NADPH, 1.0 uM compound
Experimental: as §1

[10] = Liver Microsome Stability Assay (monkey); conditions: monkey liver microsomes, with NADPH, 1.0 uM compound
Experimental: as §1

[11] = '<=>' given where both are I.A.

IC50 [1]	IC50 [2]	IC50 [3]	IC50 [4]	EC50 [5]	EC50 [6]	Liver Microsome Stability (Multiple Species): Rat - % Remaining after 30 min w/NADPH [7]	Liver Microsome Stability (Multiple Species): Mouse - % Remaining after 30 min w/NADPH [8]	Liver Microsome Stability (Multiple Species): Human - % Remaining after 30 min w/NADPH [9]	Liver Microsome Stability (Multiple Species): Monkey - % Remaining after 30 min w/NADPH [10]	IC50 ([1]; mean)	IC50 ([2]; mean)	IC50 ([3]; mean)	IC50 ([4]; mean)	Compound	24 hr Dox Inducible TNFaFLGluc 293FRT/TO: TNF/PD1 [2]	24 hr Dox Inducible IL2FLGluc 293FRT/TO: IL2/PD1 [4]	24 hr Dox Inducible TNFaFLGluc 293FRT/TO: TNF/PD1 [2, 11]	24 hr Dox Inducible IL2FLGluc 293FRT/TO: IL2/PD1 [4, 11]
0.0239 µM	0.931 µM	0.0763 µM	0.107 µM	0.525 µM	7.4 µM	51.4%	70.6%	72.8%	70.8%	–	–	–	–	O=C(Nc1ccc(N2CCC[C@@H]2c2csc(NC(=O)c3cccn3Cc3ccnc(F)c3)n2)cc1)OC1CNC1 [Compound A178, azetidin-3-yl (R)-(4-(2-(2-(1-((2-fluoropyridin-4-yl)methyl)-1H-pyrrole-2-carboxamido)thiazol-4-yl)pyrrolidin-1-yl)phenyl)carbamate]	39	4.5	–	–
0.0159 µM	0.323 µM	0.0269 µM	0.0404 µM	0.842 µM	8.75 µM	17.4%	23.8%	70.3%	54.6%	–	–	–	–	CN1CC(OC(=O)Nc2ccc(N3CCC[C@@H]3c3csc(NC(=O)c4cccn4Cc4ccnc(F)c4)n3)cc2)C1 [Compound A173, 1-methylazetidin-3-yl (R)-(4-(2-(2-(1-((2-fluoropyridin-4-yl)methyl)-1H-pyrrole-2-carboxamido)thiazol-4-yl)pyrrolidin-1-yl)phenyl)carbamate]	20.3	2.5	–	–
0.0573 µM	1.06 µM	0.095 µM	0.105 µM	2.52 µM	> 25 µM	47.1%	34.6%	15.1%	8.42%	–	–	–	–	CS(=O)(=O)N1CC(Oc2ccc(N3CCC[C@@H]3c3csc(NC(=O)c4cccn4Cc4ccnc(F)c4)n3)cc2)C1 [Compound A132, (R)-1-((2-fluoropyridin-4-yl)methyl)-N-(4-(1-(4-((1-(methylsulfonyl)azetidin-3-yl)oxy)phenyl)pyrrolidin-2-yl)thiazol-2-yl)-1H-pyrrole-2-carboxamide]	18.5	1.8	–	–

Further lines, the compound ahead of its results:

Compound	IC50 [1]	IC50 [2]	IC50 [3]	IC50 [4]	EC50 [5]	EC50 [6]	Liver Microsome Stability (Multiple Species): Rat - % Remaining after 30 min w/NADPH [7]	Liver Microsome Stability (Multiple Species): Mouse - % Remaining after 30 min w/NADPH [8]	Liver Microsome Stability (Multiple Species): Human - % Remaining after 30 min w/NADPH [9]	Liver Microsome Stability (Multiple Species): Monkey - % Remaining after 30 min w/NADPH [10]	IC50 ([1]; mean)	IC50 ([2]; mean)	IC50 ([3]; mean)	IC50 ([4]; mean)	24 hr Dox Inducible TNFaFLGluc 293FRT/TO: TNF/PD1 [2]	24 hr Dox Inducible IL2FLGluc 293FRT/TO: IL2/PD1 [4]	24 hr Dox Inducible TNFaFLGluc 293FRT/TO: TNF/PD1 [2, 11]	24 hr Dox Inducible IL2FLGluc 293FRT/TO: IL2/PD1 [4, 11]
O=C(Nc1nc(C2C3CN(c4ccccc4)CC32)cs1)c1cccn1Cc1ccncc1 (centres unmarked) [Compound E36, N-(4-(3-phenyl-3-azabicyclo[3.1.0]hexan-6-yl)thiazol-2-yl)-1-(pyridin-4-ylmethyl)-1H-pyrrole-2-carboxamide]	–	–	–	–	> 25 µM	13.8 µM	1.49%	27.8%	1.63%	0.83%	0.284 µM	5.07 µM	0.89 µM	1.71 µM	–	–	17.8	6
CC(C)c1cccc2nc(/C=C/c3csc(NC(=O)c4cccn4Cc4ccncc4)n3)cn12 [Compound B76, (E)-N-(4-(2-(5-isopropylimidazo[1,2-a]pyridin-2-yl)vinyl)thiazol-2-yl)-1-(pyridin-4-ylmethyl)-1H-pyrrole-2-carboxamide]	0.419 µM	> 25 µM	1.6 µM	> 25 µM	> 25 µM	> 25 µM	0.52%	0.37%	0.76%	0.25%	–	–	–	–	>59.6	>60	–	–
NC(=O)CCn1cccc1C(=O)Nc1nc([C@H]2CCCN2c2ccccc2)cs1 [Compound C15]	–	–	–	–	> 25 µM	> 25 µM	18.3%	31.7%	29.3%	22.4%	> 25 µM	> 25 µM	> 25 µM	> 25 µM	–	–	–	1
CC(C)c1nc(/C=C/c2csc(NC(=O)c3cccn3Cc3ccnc(F)c3)n2)cn1C [Compound B67, (E)-1-((2-fluoropyridin-4-yl)methyl)-N-(4-(2-(2-isopropyl-1-methyl-1H-imidazol-4-yl)vinyl)thiazol-2-yl)-1H-pyrrole-2-carboxamide]	5.37 µM	> 25 µM	18.5 µM	19.1 µM	21 µM	19.7 µM	1.32%	2.2%	0.16%	0.13%	–	–	–	–	>4.66	3.6	–	–
O=C(Nc1nc(/C=C/c2cn(C3CCCCC3)cn2)cs1)c1cccn1CC1CCOCC1 [Compound D5, (E)-N-(4-(2-(1-cyclohexyl-1H-imidazol-4-yl)vinyl)thiazol-2-yl)-1-((tetrahydro-2H-pyran-4-yl)methyl)-1H-pyrrole-2-carboxamide]	–	–	–	–	18.9 µM	> 24.7 µM	0.16%	0.54%	0.18%	0.17%	0.776 µM	> 25 µM	21.4 µM	13.5 µM	–	–	>32.2	17
Cc1cccc2nc(/C=C/c3csc(NC(=O)c4cccn4Cc4ccnc(F)c4)n3)cn12 [Compound B70, (E)-1-((2-fluoropyridin-4-yl)methyl)-N-(4-(2-(5-methylimidazo[1,2-a]pyridin-2-yl)vinyl)thiazol-2-yl)-1H-pyrrole-2-carboxamide]	0.499 µM	> 25 µM	> 25 µM	> 25 µM	> 25 µM	> 25 µM	1.37%	2.19%	0.35%	0.19%	–	–	–	–	>50.1	>50	–	–
